Measured values from the NIST ThermoML archive (doi:10.1021/je700363m).
Numbers after ± are expanded uncertainties.

Test: wn = mass fraction of the nth substance listed
Details: 101 kPa, Liquid; for viscosity: Capillary tube (Ostwald / Ubbelohde) method

[K+].[K+].[O]=[Cr](=[O])([O-])[O][Cr](=[O])(=[O])[O-] [potassium dichromate] + O
viscosity (313.15 K, w1 = 0.0478): 0.6465 ± 0.0055 mPa·s | viscosity (313.15 K, w1 = 0.0906): 0.6805 ± 0.0058 mPa·s | mass density (313.15 K, w1 = 0.02): 1006.5 ± 1.1 kg/m3 | mass density (313.15 K, w1 = 0.05): 1026.8 ± 1.2 kg/m3 | viscosity (319.15 K, w1 = 0.155): 0.6914 ± 0.0059 mPa·s | mass density (319.15 K, w1 = 0.155): 1166.5 ± 1.4 kg/m3 | viscosity (323.25 K, w1 = 0.172): 0.6658 ± 0.0057 mPa·s | mass density (323.25 K, w1 = 0.172): 1184.2 ± 1.5 kg/m3 | mass density (333.15 K, w1 = 0.02): 997 ± 1.3 kg/m3 | mass density (333.15 K, w1 = 0.05): 1016.4 ± 1.3 kg/m3 | mass density (333.32 K, w1 = 0.214): 1232.1 ± 1.6 kg/m3 | viscosity (333.35 K, w1 = 0.214): 0.6307 ± 0.0054 mPa·s

[K+].[K+].[O]=[Cr](=[O])([O-])[O-] [potassium chromate(VI)] + O
viscosity (298.15 K, w1 = 0.0931): 0.9285 ± 0.0077 mPa·s | mass density (298.15 K, w1 = 0.049): 1034.6 ± 1 kg/m3 | mass density (298.15 K, w1 = 0.0538): 1038.3 ± 1 kg/m3 | mass density (298.15 K, w1 = 0.0653): 1046.8 ± 1 kg/m3 | viscosity (313.15 K, w1 = 0.0931): 0.7309 ± 0.0062 mPa·s
